System: P12-Ichikawa
Experiment: AUC of viability dose-response curve (% viability x log10 dose units); higher = less sensitive
Settings: 48 h
Summary of the method: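 Over 48 h at 37°C, leukemia cells in 1536-well plates (500 or 1000 cells/well), adapted to each medium, received library compounds in DMSO at 11 threefold doses from 47 μM to 0.79 nM. CellTiter-Glo One luminescence, normalised per plate to DMSO and cell-free wells, was fitted by a four-parameter log-logistic function of log10 dose. The area under the curve was then integrated by trapezoidal rule, after scaling curves above full viability and removing those that failed quality control.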

[1] = RPMI 5 mM glucose + 10% dialyzed FBS

| Structure (SMILES) | AUC of viability dose-response curve (HPLM + 10% dialyzed FBS) | AUC of viability dose-response curve (RPMI 5 mM glucose + 10% FBS) | AUC of viability dose-response curve [1] |
| --- | --- | --- | --- |
| CC(C)(C)C(=O)Oc1ccc2c(c1)nc(NC(=O)c1cccc([N+](=O)[O-])c1)n2CCCO | 460 | 437 | 445 |
| CN\1C(=O)/C(=C(\N=C1N2CCCC[S+]2([O-])=O)C(=O)NCC3=CC=C(F)C=C3)O | 444 | 462 | 459 |
| CC1=NN(c2ccc(C)c(C)c2)C(=O)/C1=N/Nc1cccc(-c2cccc(C(=O)O)c2)c1O | 448 | 430 | 426 |
| CC(C)c1cnn2c(NCc3ccccc3)cc(N[C@@H](CO)[C@H](O)CO)nc12 | 327 | 313 | 320 |
| C[C@]12C[C@H](O)[C@H]3[C@@H](CC\C4=C\C(=O)\C=C/[C@]34C)[C@@H]1CC[C@]2(O)C(=O)CO | 372 | 353 | 349 |
| CN(c1ncccc1CNc1nc(Nc2ccc3c(c2)CC(=O)N3)ncc1C(F)(F)F)[S+](C)(=O)[O-] | 462 | 447 | 459 |
| CC(C)n1c(/C=C/[C@H](O)C[C@H](O)CC(=O)O)c(-c2ccc(F)cc2)c2ccccc21 | 381 | 371 | 355 |
| C[C@H](O)[C@H]1[C@@H]2[C@H](C)C(=C(\N2C1=O)C(O)=O)/S[C@@H]3CN[C@H](CN[S+](N)([O-])=O)C3 | 465 | 455 | 447 |
| COc1ccc(Cc2ccc(NC(N)=O)cc2)cc1-c1cccc(Cl)c1 | 467 | 465 | 464 |
| ClC1=C(N\C2=N\CCN2)C3=NSN=C3C=C1 | 461 | 465 | 455 |
